Source: PubChem BioAssay AID1963974 (Molecular Pharmacology Branch, DTP, NCI, 2024)

System: 648629-189-R-J1-PDC spheroids with HUVEC/MSC, viability
Test: Anticancer human tumor 648629-189-R-J1-PDC patient-derived bladder carcinoma cell line growth inhibition [PI3K]
Conditions: for IC50: curve of first compound; for viability, T/C: stronger effect = lower value; active = viability on the fitted dose curve at most 10% of control; inactive = the rest
Procedure, shortened: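 Tumor cells grown as multi-cell spheroids with HUVEC endothelial cells and MSC fibroblast-like stroma were treated with targeted agents combined with inavolisib, alpelisib, duvelisib or copanlisib. Doses fell in half-log steps from near clinical Cmax, else from 10 microM. Viability was measured.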

[1] = second compound 0.00316 µM, first compound 0.0316 µM
[2] = second compound 0.00316 µM, first compound 0.1 µM
[3] = second compound 0.01 µM, first compound 0.0316 µM
[4] = second compound 0.01 µM, first compound 0.1 µM
[5] = second compound 0.0316 µM, first compound 0.0316 µM
[6] = second compound 0.0316 µM, first compound 0.1 µM
[7] = second compound 0.1 µM, first compound 0.0316 µM
[8] = second compound 0.1 µM, first compound 0.1 µM
[9] = second compound 0.316 µM, first compound 0.0316 µM
[10] = second compound 0.316 µM, first compound 0.1 µM
[11] = second compound 1 µM, first compound 0.0316 µM
[12] = second compound 1 µM, first compound 0.1 µM
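Note: spheroids exposed to agents for seven days before reading.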
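Throughout, for viability, T/C: percent of vehicle control luminescence where 100% = DMSO treated spheroids.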

C[C@@H](NC(=O)c1ncnc(N)c1Cl)c1ncc(C(=O)Nc2cc(C(F)(F)F)c(Cl)cn2)s1 + COc1c(OCCCN2CCOCC2)ccc2c3n(c(=NC(=O)c4cnc(N)nc4)nc12)CCN3
< 31.6 nM: IC50 (second compound 0.316 µM) | IC50 (second compound 1 µM)
active: viability, T/C [11] 4.31% | viability, T/C [12] 4.06% | viability, T/C (second compound 1 µM, first compound 0.316 µM) 3.53% | viability, T/C (second compound 1 µM, first compound 1 µM) 4.37% | viability, T/C (second compound 1 µM, first compound 3.16 µM) 4.83% | viability, T/C (second compound 1 µM, first compound 10 µM) 6.55%
> 10000 nM: IC50 (second compound 0.00316 µM) | IC50 (second compound 0.01 µM) | IC50 (second compound 0.0316 µM) | IC50 (second compound 0.1 µM)
inactive: viability, T/C [1] 105% | viability, T/C [2] 106% | viability, T/C (second compound 0.00316 µM, first compound 0.316 µM) 103% | viability, T/C (second compound 0.00316 µM, first compound 1 µM) 107% | viability, T/C (second compound 0.00316 µM, first compound 3.16 µM) 112% | viability, T/C (second compound 0.00316 µM, first compound 10 µM) 116% | viability, T/C [3] 99.9% | viability, T/C [4] 111% | viability, T/C (second compound 0.01 µM, first compound 0.316 µM) 90.4% | viability, T/C (second compound 0.01 µM, first compound 1 µM) 101% | viability, T/C (second compound 0.01 µM, first compound 3.16 µM) 128% | viability, T/C (second compound 0.01 µM, first compound 10 µM) 113% | viability, T/C [5] 95.8% | viability, T/C [6] 93.8% | viability, T/C (second compound 0.0316 µM, first compound 0.316 µM) 109% | viability, T/C (second compound 0.0316 µM, first compound 1 µM) 94.9% | viability, T/C (second compound 0.0316 µM, first compound 3.16 µM) 104% | viability, T/C (second compound 0.0316 µM, first compound 10 µM) 90% | viability, T/C [7] 66.6% | viability, T/C [8] 70.3% | viability, T/C (second compound 0.1 µM, first compound 0.316 µM) 60.8% | viability, T/C (second compound 0.1 µM, first compound 1 µM) 65.2% | viability, T/C (second compound 0.1 µM, first compound 3.16 µM) 67.3% | viability, T/C (second compound 0.1 µM, first compound 10 µM) 68.9% | viability, T/C [9] 23.6% | viability, T/C [10] 21.7% | viability, T/C (second compound 0.316 µM, first compound 0.316 µM) 19.4% | viability, T/C (second compound 0.316 µM, first compound 1 µM) 27.9% | viability, T/C (second compound 0.316 µM, first compound 3.16 µM) 26.4% | viability, T/C (second compound 0.316 µM, first compound 10 µM) 25.8%

CC(=O)c1c(C)c2cnc(Nc3ccc(N4CCNCC4)cn3)nc2n(C2CCCC2)c1=O + CC(Nc1ccc2c(c1)OCCn1cc(N3C(=O)OCC3C(F)F)nc1-2)C(N)=O
> 100 nM: IC50 (second compound 0.00316 µM) | IC50 (second compound 0.01 µM) | IC50 (second compound 0.0316 µM) | IC50 (second compound 0.1 µM) | IC50 (second compound 0.316 µM) | IC50 (second compound 1 µM)
inactive: viability, T/C (second compound 0.00316 µM, first compound 0.000316 µM) 102% | viability, T/C (second compound 0.00316 µM, first compound 0.001 µM) 103% | viability, T/C (second compound 0.00316 µM, first compound 0.00316 µM) 105% | viability, T/C (second compound 0.00316 µM, first compound 0.01 µM) 95.5% | viability, T/C [1] 108% | viability, T/C [2] 112% | viability, T/C (second compound 0.01 µM, first compound 0.000316 µM) 101% | viability, T/C (second compound 0.01 µM, first compound 0.001 µM) 103% | viability, T/C (second compound 0.01 µM, first compound 0.00316 µM) 88% | viability, T/C (second compound 0.01 µM, first compound 0.01 µM) 99.4% | viability, T/C [3] 98.9% | viability, T/C [4] 104% | viability, T/C (second compound 0.0316 µM, first compound 0.000316 µM) 88.5% | viability, T/C (second compound 0.0316 µM, first compound 0.001 µM) 105% | viability, T/C (second compound 0.0316 µM, first compound 0.00316 µM) 95.9% | viability, T/C (second compound 0.0316 µM, first compound 0.01 µM) 99.9% | viability, T/C [5] 97.4% | viability, T/C [6] 96.4% | viability, T/C (second compound 0.1 µM, first compound 0.000316 µM) 104% | viability, T/C (second compound 0.1 µM, first compound 0.001 µM) 92.1% | viability, T/C (second compound 0.1 µM, first compound 0.00316 µM) 82.8% | viability, T/C (second compound 0.1 µM, first compound 0.01 µM) 88.3% | viability, T/C [7] 96.2% | viability, T/C [8] 102% | viability, T/C (second compound 0.316 µM, first compound 0.000316 µM) 81.5% | viability, T/C (second compound 0.316 µM, first compound 0.001 µM) 87.2% | viability, T/C (second compound 0.316 µM, first compound 0.00316 µM) 85% | viability, T/C (second compound 0.316 µM, first compound 0.01 µM) 82.4% | viability, T/C [9] 76.4% | viability, T/C [10] 94.5% | viability, T/C (second compound 1 µM, first compound 0.000316 µM) 67% | viability, T/C (second compound 1 µM, first compound 0.001 µM) 65.7% | viability, T/C (second compound 1 µM, first compound 0.00316 µM) 78.4% | viability, T/C (second compound 1 µM, first compound 0.01 µM) 80% | viability, T/C [11] 63.4% | viability, T/C [12] 71.2%
